# What was measured:
# DAAO [1] = molecular target: T1, DAAO (Rattus norvegicus, UniProt O35078); details: oral co-administration with D-serine, rats; cited from earlier work
# T1 construct: host or cells: living rats (whole animal)
# [2] = test system: prepulse inhibition deficits; details: co-administration with D-serine, ddy mice; similar to 10-fold higher doses of D-serine alone; cited from earlier work
# DAAO [3] = molecular target: T2, DAAO (Mus musculus, UniProt P18894); assay: Plasma D-serine after oral administration of D-serine ± DAAO inhibitors, determined by SPE/DAAO; assay type: in vivo; details: CD1 mice; for plasma D-serine curve / exposure to D-serine on co-administration: D-serine 326 μmole/kg po plus inhibitor po (CBIO 180, TPC 160 μmoles/kg)
# T2 construct: CD1 mice (6-8 wk old, Sprague Dawley, Harlan) were dosed orally with D-serine (30 mg/kg)±compounds; from tissue; host or cells: living CD1 mice (whole animal; DAAO of liver, kidney, brain)
# Description: Plasma was collected at 0.5, 1, 2, 3, and 6 hours after dosage. D-serine was extracted from plasma by SPE and its levels determined by the DAAO reaction. FIG. 2(A) depicts D-serine alone, FIG. 2(B) depicts CBIO alone, D-serine±CBIO and FIG. 2(C) depicts D-serine±TPC. […] Each data point is the average of data from 3 separate mice; error bars correspond to ±S.E.M. D-serine standard curves were constructed for each experiment.
# Animals—CD1 mice (6-8 wk old, Sprague Dawley, Harlan) were dosed orally with D-serine (30 mg/kg)±compounds. Animals were sacrificed 0.5, 1, 2, 3 and 6 h after dosing and blood was collected by cardiac puncture bleeds. Plasma was prepared and frozen at −80° C. until use.
# (§1) Cation Exchange SPE—D-serine was added to normal mouse plasma at different concentrations to generate a standard curve. Plasma (50 μL) containing D-serine or plasma from D-serine treated animals was diluted in 200 μL 0.03 N HCl (pH 1.5). […] Acidified samples were then added to a cation exchange resin (BioRad AG 50W-X4, 200 μL resin equilibrated with 0.03 N HCl) in deep well spin plates (Harvard Apparatus). Minicolumns were centrifuged for 2 min at 200×g. The resin was washed twice with 250 μL 0.03 N HCl and 3 times with 250 μL 100 mM Tris, pH 8.5. D-serine was eluted with 2 times 250 μL 100 mM Tris, pH 13.
# D-serine Measurement—An aliquot (50 μL) of the D-serine eluant from the cation exchange SPE was used as the source of D-serine in the DAAO catalyzed reaction. […] Briefly, the reaction is carried out in Tris buffer (pH 8.5, 100 mM) in the presence of flavin adenine dinucleotide (10 μM). The peroxide formed from the oxidation of D-serine in the presence of porcine DAAO (34 units/mg, Sigma) was made to react with horse radish peroxidase (0.01 mg/ml, Sigma) in the presence of Amplex Red (50 μM, Invitrogen) to make resorufin. Fluorescence of resorufin (ex/em 530/590) was monitored in a SpectraMax Gemini XS fluorimeter for 1 h at 5 min intervals. D-serine concentrations were determined by interpolation from the standard curve of fluorescence vs. D-serine concentration. […]
# porcine DAAO = molecular target: T3, porcine DAAO (Sus scrofa, UniProt P00371); assay: DAAO enzyme coupled assay (Amplex Red/HRP, resorufin fluorescence); assay type: biochemical; details: control experiment, CBIO not removed by SPE; data not shown
# T3 construct: purchased Sigma
# Description: D-serine Measurement—An aliquot (50 μL) of the D-serine eluant from the cation exchange SPE was used as the source of D-serine in the DAAO catalyzed reaction. The DAAO assay is an enzyme coupled assay that was adapted from a procedure that has been reported previously (P. E. Brandish, et al. J Biomol Screen 11 (2006) 481-87). Briefly, the reaction is carried out in Tris buffer (pH 8.5, 100 mM) in the presence of flavin adenine dinucleotide (10 μM). The peroxide formed from the oxidation of D-serine in the presence of porcine DAAO (34 units/mg, Sigma) was made to react with horse radish peroxidase (0.01 mg/ml, Sigma) in the presence of Amplex Red (50 μM, Invitrogen) to make resorufin. Fluorescence of resorufin (ex/em 530/590) was monitored in a SpectraMax Gemini XS fluorimeter for 1 h at 5 min intervals. D-serine concentrations were determined by interpolation from the standard curve of fluorescence vs. D-serine concentration.
# The eluant containing D-serine was then used as substrate in the DAAO catalyzed reaction. […] The levels of several D-amino acids in mouse serum have been reported previously and they range from not detectable to 6 μM (A. Hashimoto, et al. Neurosci Lett 152 (1993) 33-36); these concentrations would give a low fluorescence background. […] In any case, background fluorescence was determined from control animals every time an experiment was carried out. […]
# [4] = Plasma D-serine time profile after oral D-serine, determined by SPE/DAAO; assay type: in vivo, CD1 mice; details: D-serine 326 μmoles/kg po
# Description: […] Animals were sacrificed 0.5, 1, 2, 3 and 6 h after dosing and blood was collected by cardiac puncture bleeds. Plasma was prepared and frozen at −80° C. until use.
# as §1
# D-serine Measurement—An aliquot (50 μL) of the D-serine eluant from the cation exchange SPE was used as the source of D-serine in the DAAO catalyzed reaction. The DAAO assay is an enzyme coupled assay that was adapted from a procedure that has been reported previously (P. E. Brandish, et al. J Biomol Screen 11 (2006) 481-87). […] Fluorescence of resorufin (ex/em 530/590) was monitored in a SpectraMax Gemini XS fluorimeter for 1 h at 5 min intervals. D-serine concentrations were determined by interpolation from the standard curve of fluorescence vs. D-serine concentration. […]
# [5] = test system: N-methyl-D-aspartate (NMDA) receptor; details: multiple clinical studies; high doses (2 g per day po); cited from earlier work
# [6] = cited from earlier work
# T2 sequence (P18894 whole entry): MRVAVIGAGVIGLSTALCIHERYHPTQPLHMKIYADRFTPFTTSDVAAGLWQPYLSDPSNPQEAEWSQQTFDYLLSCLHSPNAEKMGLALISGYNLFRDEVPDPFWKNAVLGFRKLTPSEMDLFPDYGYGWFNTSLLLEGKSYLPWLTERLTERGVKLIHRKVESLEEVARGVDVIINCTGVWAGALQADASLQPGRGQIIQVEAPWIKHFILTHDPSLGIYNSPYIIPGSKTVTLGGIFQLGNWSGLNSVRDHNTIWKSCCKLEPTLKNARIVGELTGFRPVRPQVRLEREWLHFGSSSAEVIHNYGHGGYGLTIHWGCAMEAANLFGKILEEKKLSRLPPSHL
# T1 sequence (O35078 whole entry): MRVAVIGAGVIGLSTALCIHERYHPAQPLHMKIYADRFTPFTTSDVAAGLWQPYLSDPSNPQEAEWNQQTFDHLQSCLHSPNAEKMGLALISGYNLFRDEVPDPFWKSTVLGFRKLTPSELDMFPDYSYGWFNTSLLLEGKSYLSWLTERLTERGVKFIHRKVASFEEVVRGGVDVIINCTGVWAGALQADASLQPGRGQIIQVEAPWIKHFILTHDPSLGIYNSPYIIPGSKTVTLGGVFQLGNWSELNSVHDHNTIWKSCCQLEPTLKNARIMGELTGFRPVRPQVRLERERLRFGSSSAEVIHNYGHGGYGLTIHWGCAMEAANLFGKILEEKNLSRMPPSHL
# T3 sequence (P00371 whole entry): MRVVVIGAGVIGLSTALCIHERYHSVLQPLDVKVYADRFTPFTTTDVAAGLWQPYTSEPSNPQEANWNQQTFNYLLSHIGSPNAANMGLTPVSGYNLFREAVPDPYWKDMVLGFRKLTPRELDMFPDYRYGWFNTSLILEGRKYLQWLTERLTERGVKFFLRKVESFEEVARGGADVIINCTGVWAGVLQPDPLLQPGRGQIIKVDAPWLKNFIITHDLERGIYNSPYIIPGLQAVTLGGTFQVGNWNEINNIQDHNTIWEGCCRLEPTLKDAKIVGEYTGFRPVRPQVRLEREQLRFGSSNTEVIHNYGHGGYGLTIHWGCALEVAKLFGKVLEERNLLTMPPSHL
plasma D-serine levels when inhibitor administered in the absence of D-serine (DAAO [3]; CBIO alone),oxidation of D-serine by DAAO (porcine DAAO),"time point showing the highest D-serine plasma concentration ([4]; first time point, Tmax likely earlier)","half-life ([4]; mouse, CD1 mice, plasma, read-out: estimated half-life of D-serine in mouse plasma)",SMILES,brain levels of D-serine compared to D-serine alone (DAAO [1]),plasma levels of D-serine compared to D-serine alone (DAAO [1]),prepulse inhibition deficits [2],plasma D-serine curve / exposure to D-serine on co-administration (DAAO [3]),"treating the positive, negative and cognitive deficits of schizophrenia [5]",pKa of the carboxylic acid [6]
the same as background levels,completely inhibited,–,–,"Oc1noc2ccc(Cl)cc12 [CBIO, 5-chloro-benzo[d]isoxazol-3-ol]",significantly enhanced,significantly enhanced,normalized,overall curve was shifted to the right,–,–
–,–,0.5 h,~50 min,N[C@H](CO)C(=O)O [D-serine],–,–,–,–,effective,2.1
–,–,–,–,"O=C(O)c1cc2sccc2[nH]1 [TPC, 4H-thieno[3,2-b]pyrrole-5-carboxylic acid]",–,–,–,shifted the exposure of D-serine in plasma,–,–
